Experimental data: ChEMBL document CHEMBL5385915 (J Med Chem, 2024)
≈ marks a conversion by molar mass, not a printed value.

How the values were obtained:
[1] = system: Mycobacterium tuberculosis variant bovis; experiment: Antimycobacterial activity against Mycobacterium bovis BCG assessed as reduction in microbial growth incubated for 7 days by resazurin dye based assay; format: functional; settings: 168 h, time 7 day
[2] = system: Mycobacterium tuberculosis variant bovis; experiment: Bactericidal activity against Mycobacterium bovis BCG assessed as inhibition of bacterial growth incubated for 7 days by resazurin dye based assay; format: functional; settings: 168 h, time 7 day

Compound	MIC99 [1]	MBC [2]
Brc1ccccc1CN1[C@H](CN2CCCC2)C[C@@H]1c1ccccc1 (racemic)	65 µM	
Clc1cc(Cl)cc([C@H]2C[C@@H](CN3CCCC3)N2Cc2ccccc2Br)c1 (racemic)	11 µM	
COCCNC[C@@H]1C[C@H](c2ccc(OC(F)(F)F)cc2)N1Cc1ccccc1OC(F)(F)F (racemic)	30 µM	
C#CCNC[C@@H]1C[C@H](c2cc(Br)cc(Br)c2)N1Cc1ccccc1Br (racemic)	54 µM	
CC(C)NC[C@@H]1C[C@H](c2ccccc2)N1Cc1ccccc1OC(F)(F)F (racemic)	45 µM	
FC(F)(F)c1cc([C@H]2C[C@@H](CN3CCCC3)N2Cc2ccccc2Br)cc(C(F)(F)F)c1 (racemic)	22 µM	12 µM (≈ 6.26 µg/mL)
CN(C)C[C@@H]1C[C@H](c2cc(Br)cc(Br)c2)N1Cc1ccccc1Br (racemic)	48 µM	
FC(F)(F)Oc1ccc([C@H]2C[C@@H](CN3CCCC3)N2Cc2ccccc2OC(F)(F)F)cc1 (racemic)		12 µM (≈ 5.69 µg/mL)
COc1ccc([C@H]2C[C@@H](CN3CCCC3)N2Cc2ccccc2Br)cc1 (racemic)	42.6 µM	
CC(C)NC[C@@H]1C[C@H](c2ccc(OC(F)(F)F)cc2)N1Cc1ccccc1OC(F)(F)F (racemic)	26 µM	
FC(F)(F)c1ccc(C2CCN(C[C@@H]3C[C@H](c4ccccc4)N3Cc3ccccc3Br)CC2)cc1 (racemic)	60 µM	
CC(C)NC[C@@H]1C[C@H](c2ccc(OC(F)(F)F)cc2)N1Cc1ccccc1Br (racemic)	24 µM	
CC(C)NC[C@@H]1C[C@H](c2ccccc2)N1Cc1ccccc1Br (racemic)	51 µM	
FC(F)(F)Oc1ccc(C2CCN(C[C@@H]3C[C@H](c4ccccc4)N3Cc3ccccc3Br)CC2)cc1 (racemic)	56 µM	
